Legend:
[1] = Systemic (plasma) concentration of CPT after single bolus IV injection; assay type: in vivo, rats; settings: free CPT IV, 2 mg/kg
Description: FIG. 9 illustrates systemic (plasma) concentration of camptothecin (CPT) as a function of time after a single bolus IV injection of CPT-Nva-MPs (CPT dose=0.2 mg/kg) (squares) and free CPT (2 mg/kg) (triangles). Values are reported as mean±SD. The lower limit of quantitation was 0.1 ng/mL.
PEGylated 6 μm polystyrene MPs with three copies of the norvaline (Nva) α-amino acid prodrug of CPT were prepared. […] Referring to FIG. 10, anti-cancer efficacy was evaluated in an orthotopic rat lung cancer model and compared to a bolus injection of CPT. One week after A549 cell inoculation, nude rats were injected IV with CPT-Nva-MPs (50 and 100 mg/kg equivalent to CPT at 0.11 mg/kg and 0.22 mg/kg), free CPT (2 mg/kg) or vehicle control (saline containing 0.1% Tween 80). The treatment was conducted every 3 days for 27 days. The day after the last treatment, all animals were euthanized, and organs (lung, heart, […], spleen and […]) were dissected and weighed. The organs were fixed in 10% neutral buffered formalin for H&E staining. […] In addition, 40% of the animals receiving CPT-Nva-MPs (0.22 mg/kg) were free of cancer. […] See references 74 and 86, which are incorporated herein by reference as if fully set forth.

[2] = system: A549 cell orthotopic lung cancer; assay: Anti-cancer efficacy in orthotopic rat lung cancer model; assay type: in vivo, nude rats; settings: 2 mg/kg IV every 3 days for 27 days; p<0.05
Description: PEGylated 6 μm polystyrene MPs with three copies of the norvaline (Nva) α-amino acid prodrug of CPT were prepared. […] The treatment was conducted every 3 days for 27 days. The day after the last treatment, all animals were euthanized, and organs (lung, heart, […], spleen and […]) were dissected and weighed. The organs were fixed in 10% neutral buffered formalin for H&E staining. […] See references 74 and 86, which are incorporated herein by reference as if fully set forth.

CC[C@@]1(O)C(=O)OCc2c1cc1n(c2=O)Cc2cc3ccccc3nc2-1 [free CPT, camptothecin]
systemic CPT exposure (in words) [1]: high but short-lived systemic exposures | area of lung cancer versus untreated animals [2]: smaller areas of lung cancer

— patent US9421194B2, “Lung targeting dual drug delivery system” (priority 2010, dated 2016)
